Tests used:
Format in all cases: cell-based
[1] = tested on: LPA-induced MCP-1 in NRK-49F cells; assay: LPA-induced MCP-1 AlphaLISA assay; settings: Rattus norvegicus, final LPA 10 μM, 7 hours; for Emax: read-out: Maximum Inhibition
How it was run: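 NRK-49F rat fibroblasts, serum-starved overnight, pretreated with compound for 30 min at 37 °C (1% DMSO final), then stimulated with 10 μM LPA final. MCP-1 in the supernatant was measured by mouse/rat CCL2 AlphaLISA. IC50 values came from four-parameter logistic fits of the ratio data.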

LPAR1 [2] = target: T1, LPAR1 (Homo sapiens, UniProt Q92633); assay: LPAR1 Arrestin Assay (arrestin reporter assay); settings: U2OS cells stably expressing the LPAR1 receptor, 200 nM 18:1 LPA (EC80); for Emax: read-out: Maximum Inhibition
T1 construct: host or cells: U2OS
Description: One day prior to the experiment, frozen U2OS cells stably expressing the LPAR1 receptor (Life Technologies, Grand Island, N.Y., #K1519A) were thawed, centrifuged at 1,000 rpm for 5 minutes to remove DMSO, and resuspended in FreeStyle™ media (Gibco, Grand Island, N.Y.). Forty microliters of cells were plated into PDL-coated 384-well plates (Greiner Bio-One, Monroe, N.C.) at 10,000 cells/well, and then the plates were incubated overnight in humidified 5% CO2 at 37° C. Test compounds were dissolved in DMSO, and 12-point, 1:3 dilution CRCs were prepared in duplicate; daughter plates were prepared by aliquoting 0.8 μL/well of test compound dilutions into 384-well plates. On the day of the assay, the daughter plates were diluted to 6× stocks using HEPES-buffered HBSS, then 10 μL of 6× test compounds were added to the cells, and the plates were incubated at 37° C. for one hour. After this 1 hour incubation, 10 μL of a 6× stock of the LPAR1 agonist, 18:1 LPA (Avanti Polar Lipids, Alabaster, Ala.), was prepared in HEPES-buffered HBSS+0.1% fatty acid-free BSA (Sigma, St. Louis, Mo.). The 6×LPA was added to all wells for a final concentration of 200 nM, which corresponds to the 18:1 LPA EC80 in this arrestin assay. The final DMSO concentration in the assay plate was 0.1%, and the final BSA concentration was 0.02%. After addition of LPA to all wells, the assay plates were incubated in humidified 5% CO2 at 37° C. for five hours. During the incubation period, 6× dye from the LiveBLAzer™-FRET B/G with CCF4-AM kit (Life Technologies, Grand Island, N.Y.) was prepared according to manufacturers' instructions. At the end of the 5 hour compound incubation, 10 μL of 6× dye was added to each well, and the assay plate was incubated for two hours in the dark at room temperature. Throughout the assay procedure, all volume additions were performed with a Biomek® NX liquid handler (Beckman Coulter, Indianapolis, Ind.). After the 2 hour dye-load, fluorescence was measured on an EnVision® Multilabel Plate Reader (Perkin Elmer, Waltham, Mass.) with an excitation filter at 409/20 nm and emission filters at 460/40 nm and 530/30 nm. Data processing was performed as recommended by the LiveBLAzer™-FRET B/G with CCF4-AM kit manual; all test compound CRCs were performed in duplicate with n≥3.

LPAR1 [3] = target: T1, LPAR1; assay: LPAR1 FLIPR Assay; settings: U2OS cells stably expressing LPAR1, LPA (EC80), Calcium 6 FLIPR dye; for Emax: read-out: Maximum Inhibition
How it was run: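 Calcium flux read-out (515-575 nm, FLIPR) in LPAR1-expressing U2OS cells after LPA challenge at EC80, given 3 min after compound addition; cells carried Calcium 6 dye loaded 2 h at 37° C. Eleven-point 3-fold dilutions were fitted with a four-parameter Hill equation for IC50.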

LPAR1 [4] = target: T1, LPAR1; assay: IP-One HTRF Assay; settings: U2OS cells stably expressing LPAR1, LPA stimulation, IP-One Tb HTRF kit; for Emax: read-out: Maximum Inhibition
Description: U2OS cells stably expressing LPAR1 (Life Technologies #K1519A) were plated at 20000 cells/well in growth medium (McCoy's 5A(Life Technologies #16600-082)) with 10% dFBS (Life Technologies #26400-036), 0.1 mM non-essential amino acids, 25 mM HEPES, 1 mM sodium pyruvate, 1% penicillin/streptomycin, 50 μg/mL hygromycin, and 100 μg/mL Geneticin® in tissue culture treated 384-well white plates (Greiner #781080) in humidified 5% CO2 at 37° C. overnight. On the day of the assay, culture medium was replaced with 30 μL/well of McCoy's 5A with 0.1% BSA. Cells were incubated in humidified 5% CO2 at 37° C. for 3 more hours. Compounds were 3-fold serial diluted from 2 mM for 11-points using dimethyl sulfoxide. 1 μL of compound in DMSO was diluted in 50 μL stimulation buffer from an IP-One Tb HTRF kit (Cisbio #62IPAPEB) immediately before assay. 15 μL/well of 1.33× compound in stimulation buffer was added to cells after removal of culture medium. After 20 minutes of incubation at 37° C., 5 μL/well of 8 μM LPA diluted in stimulation buffer with 0.1% fatty acid free BSA was added to cells. […]. To EC100 wells were added 4×20 μM LPA. To the cells were added 5 μL/well IP1-d2 conjugate and 5 μLwell IP1-K antibody after 2 hours of incubation at 37° C. Cells were incubated at room temperature for 1 hour (protected from light). The plate was then read at 665 nm and 615 nm using an EnVision® Multilabel Plate Reader. IC50 values were calculated from curve fits of the ratio data using a four-parameter logistic Hill equation (Assay Explorer 3.3 Client).

T1 sequence (Q92633 whole entry): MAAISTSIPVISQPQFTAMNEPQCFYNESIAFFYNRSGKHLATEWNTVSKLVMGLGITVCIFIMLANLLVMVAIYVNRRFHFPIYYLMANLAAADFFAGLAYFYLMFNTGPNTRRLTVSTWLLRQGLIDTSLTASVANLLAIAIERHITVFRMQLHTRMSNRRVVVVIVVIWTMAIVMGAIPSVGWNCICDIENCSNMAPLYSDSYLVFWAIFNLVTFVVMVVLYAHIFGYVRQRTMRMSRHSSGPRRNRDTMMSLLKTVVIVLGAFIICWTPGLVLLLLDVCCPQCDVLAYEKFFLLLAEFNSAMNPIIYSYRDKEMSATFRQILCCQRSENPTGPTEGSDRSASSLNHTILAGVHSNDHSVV

Row | SMILES | IC50 [1] [nM] | Emax [1] [%] | IC50 (LPAR1 [2]) [nM] | Emax (LPAR1 [2]) [%] | IC50 (LPAR1 [3]) [nM] | Emax (LPAR1 [3]) [%] | IC50 (LPAR1 [4]) [nM] | Emax (LPAR1 [4]) [%]
1 | COc1cc(C(=O)N(CCCCC(=O)O)CCCc2ccccc2)cc(OC)c1F [Example 99, 5-[(4-fluoro-3,5-dimethoxybenzoyl)(3-phenylpropyl)amino]pentanoic Acid] | 7850 | 56 | 3250 | 112 | 67 | 82 | – | –
2 | COc1cc(C(=O)N(CCCc2ccccc2)CC(=O)NC(C)(C)C(=O)O)cc(OC)c1C [Example 45, N-(3,5-dimethoxy-4-methylbenzoyl)-N-(3-phenylpropyl)glycyl-2-methylalanine] | 5540 | 71 | 494 | 108 | 51 | 91 | – | –
3 | COc1cc(C(=O)N(CCCCC(=O)O)CCCc2ccc(C)o2)c(F)c(OC)c1F [Example 175, 5-{(2,4-difluoro-3,5-dimethoxybenzoyl)[3-(5-methylfuran-2-yl)propyl]amino}pentanoic Acid] | 3940 | 67 | 5680 | 119 | 48 | 73 | – | –
4 | COc1cc(C(=O)N(CCCCC(=O)O)CCCc2ccc(C)o2)cc(OC)c1C1CC1 [Example 178, 5-{(4-cyclopropyl-3,5-dimethoxybenzoyl)[3-(5-methylfuran-2-yl)propyl]amino}pentanoic Acid] | 1970 | 77 | 1560 | 122 | 45 | 84 | – | –
5 | COc1cc(C(=O)N(CCCc2ccccc2)CCCC(O)C(=O)O)cc(OC)c1C (stereo not drawn) [Example 151, 5-[(3,5-dimethoxy-4-methylbenzoyl)(3-phenylpropyl)amino]-2-hydroxypentanoic Acid] | 1630 | 79 | 665 | 114 | 37 | 79 | – | –
6 | COc1cc(C(=O)N(CCCc2ccc(F)cc2)CCOCC(=O)O)cc(OC)c1C [Example 139, (2-{(3,5-dimethoxy-4-methylbenzoyl)[3-(4-fluorophenyl)propyl]amino}ethoxy)acetic Acid] | 3150 | 72 | 464 | 125 | 46 | 78 | – | –
7 | COc1ccc(C2(C(=O)N(CCCCC(=O)O)CCCc3ccccc3)COC2)cc1 [Example 89, 5-{[3-(4-methoxyphenyl)oxetane-3-carbonyl](3-phenylpropyl)amino}pentanoic Acid] | 4700 | 65 | 445 | 114 | 36 | 95 | – | –
8 | COc1cc(C(=O)N(CCCc2ccc(F)cc2F)CCOCC(=O)O)cc(OC)c1C [Example 130, (2-{[3-(2,4-difluorophenyl)propyl](3,5-dimethoxy-4-methylbenzoyl)amino}ethoxy)acetic Acid] | 1790 | 83 | 760 | 119 | 41 | 83 | – | –
9 | COc1cc(C(=O)N(CCCCC(=O)O)CCCc2ccccc2)cc(OC)n1 [Example 48, 5-[(2,6-dimethoxypyridine-4-carbonyl)(3-phenylpropyl)amino]pentanoic Acid] | > 4770 | 62 | 3320 | 113 | 52 | 81 | – | –
10 | COc1cc(C(=O)N(CCCCC(=O)O)CCCc2ccccc2)c(F)c(OC)c1F [Example 30, 5-[(2,4-difluoro-3,5-dimethoxybenzoyl)(3-phenylpropyl)amino]pentanoic Acid] | 743 | 74 | 618 | 118 | 42 | 96 | – | –
11 | COc1cc(C(=O)N(CCCCC(=O)O)CCCc2ccc(C)s2)cc(OC)c1C [Example 41, 5-{(3,5-dimethoxy-4-methylbenzoyl)[3-(5-methylthiophen-2-yl)propyl]amino}pentanoic Acid] | 335 | 88 | – | – | 22 | 97 | 191 | 100
12 | COc1cc(C(=O)N(CCCc2ccccc2)CCOCC2(C(=O)O)CC2)cc(OC)c1C [Example 59, 1-({2-[(3,5-dimethoxy-4-methylbenzoyl)(3-phenylpropyl)amino]ethoxy}methyl)cyclopropane-1-carboxylic Acid] | 127 | 93 | – | – | 23 | 100 | 449 | 88
13 | COc1cc(C(=O)N(CCCCCC(=O)O)CCCc2ccccc2)cc(OC)c1C [Example 5, 6-[(3,5-dimethoxy-4-methylbenzoyl)(3-phenylpropyl)amino]hexanoic Acid] | 286 | 97 | – | – | 27 | 97 | 313 | 105
14 | COc1cc(OC)cc(C(=O)N(CCCCP(=O)(O)O)CCCc2ccccc2)c1 [Example 75, {4-[(3,5-dimethoxybenzoyl)(3-phenylpropyl)amino]butyl}phosphonic Acid] | 3250 | 65 | – | – | 20 | 72 | 1070 | 77
15 | COc1cc(OC)cc(C(=O)N(CCCc2ccccc2)CCCC(C)C(=O)O)c1 (stereo not drawn) [Example 98, 5-[(3,5-dimethoxybenzoyl)(3-phenylpropyl)amino]-2-methylpentanoic Acid] | 4580 | 66 | – | – | 29 | 87 | 836 | 76
16 | COc1cc(C(=O)N(CCCc2ccccc2)CCOCCC(=O)O)cc(OC)c1C [Example 56, 3-{2-[(3,5-dimethoxy-4-methylbenzoyl)(3-phenylpropyl)amino]ethoxy}propanoic Acid] | 1240 | 79 | – | – | 21 | 95 | 424 | 100
17 | COc1cc(C(=O)N(CCCc2ccccc2)CC(=O)NC2(C(=O)O)Cc3ccccc3C2)cc(OC)c1C [Example 1, 2-{[N-(3,5-dimethoxy-4-methylbenzoyl)-N-(3-phenylpropyl)glycyl]amino}-2,3-dihydro-1H-indene-2-carboxylic Acid] | 1540 | 66 | – | – | 45 | 74 | 1210 | 75
